Measured values reported in the NIST ThermoML archive (doi:10.1021/acs.jced.9b00420).

Conditions: Liquid; for mass density: Vibrating tube method; for speed of sound: Light diffraction method

CCCCCCCCC(=O)OCC [ethyl nonanoate]
Conditions	mass density [kg/m3]	speed of sound [m/s]
293.15 K, 100 kPa	865.02	–
295.24 K, 10000 kPa	–	1348.5
295.29 K, 7000 kPa	–	1342.4
295.35 K, 5000 kPa	–	1336.6
295.41 K, 3000 kPa	–	1327.1
295.53 K, 1000 kPa	–	1318.3
295.67 K, 100 kPa	–	1303.3
298.15 K, 100 kPa	860.89	–
303.15 K, 100 kPa	856.75	–
303.18 K, 10000 kPa	–	1318
303.22 K, 3000 kPa	–	1296.2
303.26 K, 1000 kPa	–	1278.4
303.3 K, 7000 kPa	–	1307
303.41 K, 5000 kPa	–	1298
303.48 K, 100 kPa	–	1273.9
313.08 K, 10000 kPa	–	1283.3
313.14 K, 1000 kPa	–	1242.7
313.15 K, 100 kPa	848.43	–
313.45 K, 7000 kPa	–	1266
313.56 K, 3000 kPa	–	1252.4
313.77 K, 100 kPa	–	1224.9
314.03 K, 5000 kPa	–	1262.6
322.95 K, 7000 kPa	–	1231.4
323.15 K, 100 kPa	840.09	–
323.39 K, 10000 kPa	–	1246.8
323.64 K, 5000 kPa	–	1215.5
323.68 K, 100 kPa	–	1183.3
324.78 K, 3000 kPa	–	1204.3
324.85 K, 1000 kPa	–	1195.5
332.89 K, 10000 kPa	–	1208.8
332.93 K, 3000 kPa	–	1175.1
333.15 K, 100 kPa	831.73	–
333.21 K, 1000 kPa	–	1163.1
334.21 K, 5000 kPa	–	1185
334.21 K, 7000 kPa	–	1191.7
334.94 K, 100 kPa	–	1142.9
342.88 K, 3000 kPa	–	1137.2
343.1 K, 10000 kPa	–	1170.1
343.12 K, 5000 kPa	–	1153.6
343.15 K, 100 kPa	823.33	–
343.24 K, 1000 kPa	–	1123.8
343.31 K, 7000 kPa	–	1157.3
343.51 K, 100 kPa	–	1107.8
351.94 K, 3000 kPa	–	1098.9
352.22 K, 1000 kPa	–	1085.5
352.39 K, 10000 kPa	–	1135
353.15 K, 100 kPa	814.88	–
353.27 K, 5000 kPa	–	1106.1
353.32 K, 7000 kPa	–	1114.4
354.18 K, 100 kPa	–	1065.4
361.97 K, 5000 kPa	–	1078.7
362.59 K, 7000 kPa	–	1085.6
362.97 K, 3000 kPa	–	1063.9
363 K, 10000 kPa	–	1106.9
363.3 K, 1000 kPa	–	1046
364.18 K, 100 kPa	–	1028.8
371.77 K, 5000 kPa	–	1046.8
371.91 K, 1000 kPa	–	1012.3
371.99 K, 100 kPa	–	1003
372.73 K, 3000 kPa	–	1024.3
373.24 K, 10000 kPa	–	1068.4
373.26 K, 7000 kPa	–	1045.8
381.51 K, 5000 kPa	–	1011.2
381.89 K, 100 kPa	–	965.2
381.96 K, 3000 kPa	–	995.2
383.17 K, 10000 kPa	–	1037.3
383.69 K, 7000 kPa	–	1011.5
384.3 K, 1000 kPa	–	971.3
391.7 K, 5000 kPa	–	974.2
391.74 K, 7000 kPa	–	985.8
391.74 K, 10000 kPa	–	1009.8
391.75 K, 1000 kPa	–	939.5
391.81 K, 3000 kPa	–	961.1
391.89 K, 100 kPa	–	932.1
403.31 K, 1000 kPa	–	902.3
403.36 K, 7000 kPa	–	943.9
403.46 K, 3000 kPa	–	921.8
403.47 K, 10000 kPa	–	968.6
403.82 K, 5000 kPa	–	929.8
405.01 K, 100 kPa	–	884
412.73 K, 3000 kPa	–	893.7
412.73 K, 10000 kPa	–	936.6
412.81 K, 7000 kPa	–	917.8
412.98 K, 1000 kPa	–	870.1
413.05 K, 5000 kPa	–	904.2
413.84 K, 100 kPa	–	861.2
421.5 K, 5000 kPa	–	875.4
421.83 K, 1000 kPa	–	842.1
421.98 K, 10000 kPa	–	916
422 K, 7000 kPa	–	891
422.02 K, 3000 kPa	–	862.5
422.07 K, 100 kPa	–	827.6
431.53 K, 1000 kPa	–	808.9
431.84 K, 5000 kPa	–	850.9
431.86 K, 10000 kPa	–	888.7
431.88 K, 7000 kPa	–	861.7
432.05 K, 3000 kPa	–	827.6
432.93 K, 100 kPa	–	797.1
442.94 K, 1000 kPa	–	779.7
443 K, 7000 kPa	–	835.6
443.02 K, 10000 kPa	–	860.3
443.11 K, 3000 kPa	–	796.4
443.15 K, 5000 kPa	–	814.1
443.7 K, 100 kPa	–	767.3
452.5 K, 1000 kPa	–	750.6
452.64 K, 7000 kPa	–	805
452.65 K, 5000 kPa	–	786.9
452.68 K, 10000 kPa	–	835.1
452.83 K, 100 kPa	–	739.6
452.88 K, 3000 kPa	–	771.1
462.31 K, 3000 kPa	–	743.5
462.34 K, 7000 kPa	–	783.1
462.43 K, 10000 kPa	–	804.8
462.49 K, 5000 kPa	–	763
462.68 K, 1000 kPa	–	720.1
464.19 K, 100 kPa	–	703.5
471.8 K, 3000 kPa	–	718.5
471.86 K, 5000 kPa	–	737.7
471.86 K, 7000 kPa	–	756.6
471.87 K, 1000 kPa	–	693.4
471.88 K, 100 kPa	–	683
471.95 K, 10000 kPa	–	783.4
482.55 K, 1000 kPa	–	665.4
482.56 K, 3000 kPa	–	691.9
482.58 K, 7000 kPa	–	727.2
482.62 K, 5000 kPa	–	709.2
482.62 K, 10000 kPa	–	759.9
482.75 K, 100 kPa	–	652.6
492.48 K, 10000 kPa	–	735.7
492.57 K, 3000 kPa	–	660.7
492.66 K, 7000 kPa	–	704.9
492.67 K, 5000 kPa	–	681.7
493 K, 1000 kPa	–	637.4
502.65 K, 3000 kPa	–	635.1
502.91 K, 7000 kPa	–	681.8
502.95 K, 1000 kPa	–	607.9
503.08 K, 10000 kPa	–	709.9
503.42 K, 5000 kPa	–	655.5
512.78 K, 7000 kPa	–	655
512.8 K, 10000 kPa	–	689.4
512.83 K, 3000 kPa	–	609.6
512.9 K, 5000 kPa	–	633.5
513.2 K, 1000 kPa	–	581.3
522.13 K, 1000 kPa	–	555.5
522.19 K, 7000 kPa	–	631.9
522.31 K, 3000 kPa	–	583.9
522.36 K, 5000 kPa	–	609.3
522.38 K, 10000 kPa	–	662
533.35 K, 1000 kPa	–	519.4
533.43 K, 7000 kPa	–	605.6
533.52 K, 10000 kPa	–	637
533.6 K, 3000 kPa	–	552.1
533.69 K, 5000 kPa	–	581.4
542.72 K, 3000 kPa	–	528.8
542.76 K, 10000 kPa	–	619.6
542.79 K, 7000 kPa	–	583
542.91 K, 5000 kPa	–	553.5
543.62 K, 1000 kPa	–	491
552.52 K, 3000 kPa	–	500.5
552.61 K, 7000 kPa	–	558.1
552.71 K, 1000 kPa	–	458.7
552.72 K, 5000 kPa	–	527.6
552.76 K, 10000 kPa	–	596.5
562.08 K, 1000 kPa	–	428.6
562.32 K, 5000 kPa	–	499.9
562.4 K, 7000 kPa	–	532
562.45 K, 10000 kPa	–	574.7
562.48 K, 3000 kPa	–	468.4
571.78 K, 3000 kPa	–	435.9
571.96 K, 1000 kPa	–	387.2
572.13 K, 7000 kPa	–	504.6
572.32 K, 10000 kPa	–	549
572.37 K, 5000 kPa	–	472
582.01 K, 5000 kPa	–	439.9
582.26 K, 7000 kPa	–	473.6
582.35 K, 10000 kPa	–	525.5
582.39 K, 3000 kPa	–	393.3
591.81 K, 3000 kPa	–	351.2
592.38 K, 5000 kPa	–	398.5
592.79 K, 7000 kPa	–	438.3
593.15 K, 10000 kPa	–	495.3
